The term half-life denotes the time needed for the level to fall by half in the phase considered.

The values that follow come from ChEMBL document CHEMBL1124117, “Coupling products of amino acids to penicillin V and cephalothin: synthesis and susceptibility to carboxypeptidases and lysosomal enzymes” (J Med Chem, 1988).

The first series in a line: Half-life of compound in the presence of lysosomal enzymes in the acetate buffer. The class given is ADME.
For the molecule `CC1(C)S[C@@H]2[C@H](NC(=O)COc3ccccc3)C(=O)N2[C@H]1C(=O)O` [PENICILLIN V], the half-life is 840 min.

Turning to `CC(=O)OCC1=C(C(=O)NC(CC(C)C)C(=O)O)N2C(=O)[C@@H](NC(=O)Cc3cccs3)[C@H]2SC1` (stereo partly drawn), the half-life was 48 min.

As to `CC1(C)S[C@@H]2[C@H](NC(=O)COc3ccccc3)C(=O)N2[C@H]1C(=O)N[C@@H](Cc1ccc(O)cc1)C(=O)O`, the half-life was 420 min.

Regarding `CC(=O)OCC1=C(C(=O)O)N2C(=O)[C@@H](NC(=O)Cc3cccs3)[C@H]2SC1` [CEPHALOTHIN], the half-life was 66 min.

The next series can be described thus: Half-life of compound in acetate buffer (pH 4.5). In kind it is ADME.
Turning to `CC1(C)S[C@@H]2[C@H](NC(=O)COc3ccccc3)C(=O)N2[C@H]1C(=O)O` [PENICILLIN V], the half-life was 1020 min.

The molecule `CC(=O)OCC1=C(C(=O)NC(CC(C)C)C(=O)O)N2C(=O)[C@@H](NC(=O)Cc3cccs3)[C@H]2SC1` (stereo partly drawn) showed a half-life of 2460 min.

For the molecule `CC1(C)S[C@@H]2[C@H](NC(=O)COc3ccccc3)C(=O)N2[C@H]1C(=O)N[C@@H](Cc1ccc(O)cc1)C(=O)O`, the half-life is 420 min.

In turn, `CC(=O)OCC1=C(C(=O)O)N2C(=O)[C@@H](NC(=O)Cc3cccs3)[C@H]2SC1` [CEPHALOTHIN] gave a half-life of 1740 min.
